Patent US7605179B2, “Napthoquinone derivatives as inhibitors of tau aggregation for the treatment of alzheimer's and related neurodegenerative disorders” (Wista Laboratories Ltd., priority 2001, dated 2009)

How the values were obtained:
[1] = target: tau-tau binding (Homo sapiens, UniProt P10636); assay: Cell-based assay I ('T40/12 kD'), production of the 12 kD fragment; details: for activity as inhibitor of tau-tau aggregation: T40/12 kD cell assay; for Ki: apparent KI calculated from T40/12 kD cell data, assumes intracellular tau 500 nM, tau-tau Kd 22 nM; for IC50: concentration at which production of the 12 kD band from full-length tau is reduced to 50%, read-out: B50
Description: Production of the 12 kD fragment can be blocked in a dose-dependent manner by tau-aggregation inhibitors. Indeed the quantitation of inhibitory activity of compounds with respect to proteolytic generation of the 12 kD fragment within cells can be described entirely in terms of the same parameters which describe inhibition of tau-tau binding in vitro. That is, extent of proteolytic generation of the 12 kD fragment within cells is determined entirely by the extent to tau-tau binding through the repeat domain. The availability of the relevant proteases within the cell is non-limiting.
The process is described in more detail in prior filed unpublished application GB 0101049.5.
The observed cell data for production of the 12 kD band can be fitted closely (i.e. observed vs. predicted correlation coefficient >0.9), to a standard function describing inhibition of tau-tau binding in vitro. To obtain this fit, two assumptions need to be made, which are consistent with results from other cell-based and in vitro studies: • 1) the intracellular concentration of tau is approximately 500 nM; • 2) the tau-tau binding affinity is 22 nM.
When these assumptions are made, the function: Activity=[tau]([tau]+Kd*(1+[inhibitor]/KI)) can be solved by standard numerical methods to derive a value for apparent KI. Comparison with values observed for tau-tau binding in vitro at a tau concentration of 500 nM, where the Kd value for tau-tau binding is known to be 22 nM confirm that the sole determinant of production of the proteolytically stable core tau unit of the PHF within the cell is simply the extent of tau-tau binding.
A further parameter, B50, has been established in respect of compounds exemplified herein. The B50 value is the determined concentration of test compound used in the cell assay at which relative production of the 12 kD band from full-length tau was reduced to 50% of that observed in the absence of the compound. This provides an indication of the tissue concentration which would be required to achieve the corresponding activity in vivo. In general there is an approximately linear relationship between apparent KI value and B50 value, which can be used to derive the KI value: B50(μM)=0.0217×KI(nM) Cell-based Assay II(‘ssK40/25 kD’)

[2] = system: fibroblast cells (3T6); assay: Toxicity in the T40/12 kD cell assay (lactate dehydrogenase kit); type: cell-based; details: for LD50: cellular LD50, cell numbers after 24 hrs exposure; for Rxindx: therapeutic index, RxIndx=LD50/B50
Description: Toxicity of the compounds described above was assessed in the T40/12 kD cell assay used to assess activity. Toxicity was measured by cell numbers after 24 hrs exposure to the compound using a lactate dehydrogenase assay kit TOX-7(Sigma Biosciences) according to the manufacturer's instructions after lysis of remaining cells. Alternatively a kit from Promega UK (CytoTox 96) was used, again according to the manufacturer's instructions.

[3] = system: cultured CNS neurones; details: cited from earlier work
[4] = system: tau-tau binding; details: WO 96/30766 FIGS. 23 and 24; 1 represents binding equivalent to that in the absence of compound; cited from earlier work
[5] = target: T1, tau-tau aggregation (Homo sapiens, UniProt P10636); assay: Cell-based assay II ('ssK40/25 kD'), proteolytic processing of tau; details: concentrations of 1-2 μM
T1 construct: membrane-targeted tau (sstau190-441, “ssK40”); expressed in transfected cells
From the text: The process is described in more detail in prior filed unpublished application GB 0100119.7. […] These cleavage sites correspond to the known boundaries of the PHF-core domain, indicate that their generation within the cell depends on PHF-like tau aggregation through an antiparallel phase-shifted alignment of the repeat domain.
This is shown schematically in FIG. 7. When expression of full-length tau (T40) is activated under control of an inducible promoter in cells which constitutively express the membrane-targeted ssK40 fragment, T40 is processed proteolytically to give rise to a K40 fragment (N-terminal truncation at ˜αα 185), a K30 fragment (C-terminal truncation ˜αα 390) and a K25 fragment (N-terminal truncation at ˜αα 295).

[6] = system: tau protein; details: 200 μM; cited from earlier work
[7] = system: tau-tau binding; assay: In vitro tau-tau binding assay (WO 96/30766)
Description: FIG. 5 is a schematic representation of the in vitro aggregation assay of WO 96/30766 in which binding of two truncated units is measured. The species terminating at […] (“a”) is first coated on the ELISA plate (in sodium carbonate buffer: 50 mM, pH 9.6). Next, a second truncated tau species terminating at […] (“e”) is incubated in various buffer conditions. […] This is described in detail in WO 96/30766. Briefly, a fragment of tau corresponding to the core repeat domain, which has been adsorbed to a solid phase substrate, is able to capture soluble full-length tau and bind tau with high affinity. This association confers stability against proteolytic digestion of the aggregated tau molecules. The process is self-propagating, and can be blocked selectively by prototype pharmaceutical agents ([…]., et al. (1996), loc. cit). The assay is shown schematically in FIG. 5.

[8] = target: tau-tubulin binding (Homo sapiens, UniProt P10636); assay: In vitro tau-tubulin binding; details: at concentrations up to 500 μM (2500:1 molar ratio with respect to tau)
Sequence of tau-tubulin binding (P10636 whole entry): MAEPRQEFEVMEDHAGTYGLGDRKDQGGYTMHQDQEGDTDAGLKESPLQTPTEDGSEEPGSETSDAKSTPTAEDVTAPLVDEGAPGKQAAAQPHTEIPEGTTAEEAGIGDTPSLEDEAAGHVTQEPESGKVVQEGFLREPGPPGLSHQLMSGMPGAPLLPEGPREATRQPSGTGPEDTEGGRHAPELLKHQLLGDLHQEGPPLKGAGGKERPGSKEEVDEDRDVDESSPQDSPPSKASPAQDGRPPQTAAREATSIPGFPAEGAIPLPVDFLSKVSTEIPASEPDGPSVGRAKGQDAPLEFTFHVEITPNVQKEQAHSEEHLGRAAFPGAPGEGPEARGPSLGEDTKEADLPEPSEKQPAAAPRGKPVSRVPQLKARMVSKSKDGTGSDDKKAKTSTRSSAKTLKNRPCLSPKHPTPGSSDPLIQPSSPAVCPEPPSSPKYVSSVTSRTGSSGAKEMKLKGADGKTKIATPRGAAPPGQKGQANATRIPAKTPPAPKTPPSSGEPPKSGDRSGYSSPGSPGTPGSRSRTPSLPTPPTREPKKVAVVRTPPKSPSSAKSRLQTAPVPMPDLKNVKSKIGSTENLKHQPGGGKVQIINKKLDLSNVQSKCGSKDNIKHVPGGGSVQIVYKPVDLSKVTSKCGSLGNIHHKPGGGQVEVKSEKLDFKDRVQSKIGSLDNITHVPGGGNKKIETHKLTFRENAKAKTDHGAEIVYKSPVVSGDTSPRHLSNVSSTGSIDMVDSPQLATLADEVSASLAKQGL

Sequence of tau-tau binding (Homo sapiens, UniProt P10636) (P10636 1-441 isoform P10636-8): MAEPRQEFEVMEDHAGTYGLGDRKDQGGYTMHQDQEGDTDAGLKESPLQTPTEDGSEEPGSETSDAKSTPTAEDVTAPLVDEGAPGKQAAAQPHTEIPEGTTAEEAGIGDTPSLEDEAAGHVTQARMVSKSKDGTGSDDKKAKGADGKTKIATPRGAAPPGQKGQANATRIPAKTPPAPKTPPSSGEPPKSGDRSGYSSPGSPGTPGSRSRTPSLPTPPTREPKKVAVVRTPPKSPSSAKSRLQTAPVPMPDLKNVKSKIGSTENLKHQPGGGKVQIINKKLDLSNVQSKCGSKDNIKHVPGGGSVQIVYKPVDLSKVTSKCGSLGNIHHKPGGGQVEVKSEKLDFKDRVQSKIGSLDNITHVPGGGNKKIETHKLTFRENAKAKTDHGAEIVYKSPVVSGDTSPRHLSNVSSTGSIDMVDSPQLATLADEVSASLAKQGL
T1 sequence (P10636 507-758): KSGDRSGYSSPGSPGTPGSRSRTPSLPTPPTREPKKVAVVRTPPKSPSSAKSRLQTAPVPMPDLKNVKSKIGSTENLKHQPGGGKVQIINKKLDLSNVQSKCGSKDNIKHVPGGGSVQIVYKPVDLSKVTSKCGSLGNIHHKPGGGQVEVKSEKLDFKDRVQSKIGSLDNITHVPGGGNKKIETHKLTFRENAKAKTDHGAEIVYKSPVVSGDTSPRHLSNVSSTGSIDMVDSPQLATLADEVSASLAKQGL

| Compound | activity as inhibitor of tau-tau aggregation [1] | Ki [1] [nM] | IC50 [1] [nM] | LD50 [2] [µM] | Rxindx [2] | further results |
| --- | --- | --- | --- | --- | --- | --- |
| O=C(O)c1cc(O)c2ccccc2c1O [DH5] | had activity | 118 | 2560 | 34.29 | 13.39 | – |
| CC(C)=CCC1=C(O)C(=O)c2ccccc2C1=O [DH1] | weak activity | 513 | 11100 | 100.97 | 9.07 | – |
| CC1=CC(=O)c2ccccc2C1=O [Compound K3, 2-methyl-1,4-naphthoquinone] | – | 128 | 2780 | 44.92 | 16.17 | survival promoting activity relative to vitamins K1 and K2 ([3]; only at 1 μM): ~10%; ranking value of inhibitory properties [4]: 1.042; conversion K40→K25 relative to that seen without K3 [5]: about ½; conversion of T40→K25 relative to that seen without K3 [5]: about ¼; conversion of T40→K40 relative to that seen without K3 ([5]; inferred): about ½; effect on tau protein phosphorylation [6]: prominent dephosphorylation of tau protein; activity in the in vitro assay [7]: did not show activity |
| CC1=C(C/C=C(\C)CCC[C@H](C)CCC[C@H](C)CCCC(C)C)C(=O)c2ccccc2C1=O [Compound K1, 2-methyl-3-phytyl-1,4-naphthoquinone] | – | – | – | – | – | survival promoting effects ([3]; in the range 10 nM—1 μM): prominent survival promoting effects |
| menaquinone [Compound K2] | – | – | – | – | – | inhibition of tau-tubulin binding in vitro [8]: does not inhibit; ranking value of inhibitory properties [4]: 0.674; Ki ([7]; for values less than 100 μM, read-out: apparent KI value in vitro): 942 nM |
| Cc1cc(OS(=O)(=O)O)c2ccccc2c1OS(=O)(=O)O [DH13] | intermediate in activity | 263 | 5710 | 30.90 | 5.41 | – |
| CC(=O)Oc1cc(C)c(OC(C)=O)c2ccccc12 [DH9] | highly active | 127 | 2760 | 13.09 | 4.75 | – |
| CC(=O)Oc1c(C)c(C)c(OC(C)=O)c2ccccc12 [DH11] | reduced activity | 674 | 14600 | 12.13 | 0.83 | – |
| CC1=C(C)C(=O)c2ccccc2C1=O [DH10, 2,3-dimethyl-1,4-naphthoquinone] | – | 221 | 4800 | 66.71 | 13.91 | – |
